# According to patent EP4552639A1, “COMPOUNDS FOR USE IN THE TREATMENT OF GASTROINTESTINAL STROMAL TUMOR (GIST)” (priority 2023, dated 2025):
# System: KIT/PDGFRA-mutated cell lines
# Assay: Cell viability assay (GR50)
# Format: cell-based
# Conditions: Figure 2
# Procedure: Cell viability assays were performed as previously described (Grunewald, S., et al., Resistance to avapritinib in PDGFRA-driven GIST is caused by secondary mutations in the PDGFRA kinase domain. Cancer Discov, 2020). To generate the results presented in Figures 2 and 3, cells were plated at 4000-16000 cells/well in a 96-well plate and cultured overnight. Cells were then incubated in triplicates with media containing inhibitors or solvent control (DMSO) for 72 hours. The sulforhodamine B (SRB) assay was used according to the method of Skehan and colleagues (Skehan, P., et al., New colorimetric cytotoxicity assay for anticancer-drug screening. J.Natl.Cancer Inst., 1990. 82(13): p. 1107-1112).
# To generate the results in for the KIT-driven cell lines (GIST-T1; T1-D816E, and T1-V654A) in Figures 1, 6, 7, and 8, cells were plated in triplicates at 400 cells/well in a 384-well plate with media containing inhibitors or solvent control (DMSO) and incubated for 72 hours. The Cell Titer Glo assay (Promega) was applied according to manufacturer's instructions. Absorption or luminescence was measured with a SPARK™ Plate reader (Tecan, Switzerland). One measurement of untreated cells at the at the start of treatment served as baseline for growth reduction (GR) calculations. […]
compound,measurement,value
"NC(=O)Nc1cc(-c2cccc(F)c2)sc1C(=O)N[C@H]1CCCNC1 [Preparation Example 3a.1, (S)-5-(3-fluorophenyl)-N-(piperidin-3-yl)-3-ureidothiophene-2-carboxamide]",cellular GR50 (concentration of a drug that reduces cell growth rate by half),1 to 30 nM
